Values quoted from earlier work as cited in patent US9617279B1, “Imidazooxadiazole compounds” (BRISTOL-MYERS SQUIBB COMPANY, priority 2014, dated 2017).

What was measured:
[1] = molecular target: T1, protease-activated receptor type 4 (PAR4) (Homo sapiens, UniProt Q96RI0); conditions: abstract of Lee et al. 2001
T1 sequence (Q96RI0 18-385): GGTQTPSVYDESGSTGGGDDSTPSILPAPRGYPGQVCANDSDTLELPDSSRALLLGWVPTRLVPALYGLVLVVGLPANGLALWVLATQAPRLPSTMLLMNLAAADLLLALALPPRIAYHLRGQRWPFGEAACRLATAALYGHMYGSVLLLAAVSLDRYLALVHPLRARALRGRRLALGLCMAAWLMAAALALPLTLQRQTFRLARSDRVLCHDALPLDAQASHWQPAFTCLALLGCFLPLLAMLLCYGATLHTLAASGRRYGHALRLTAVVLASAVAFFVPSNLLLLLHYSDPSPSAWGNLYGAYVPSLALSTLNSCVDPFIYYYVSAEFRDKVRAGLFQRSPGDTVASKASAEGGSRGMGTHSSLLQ

PAR1 = molecular target: T2, PAR1 (Homo sapiens, UniProt P25116); conditions: ACS patients, phase III
T2 sequence (P25116 22-425): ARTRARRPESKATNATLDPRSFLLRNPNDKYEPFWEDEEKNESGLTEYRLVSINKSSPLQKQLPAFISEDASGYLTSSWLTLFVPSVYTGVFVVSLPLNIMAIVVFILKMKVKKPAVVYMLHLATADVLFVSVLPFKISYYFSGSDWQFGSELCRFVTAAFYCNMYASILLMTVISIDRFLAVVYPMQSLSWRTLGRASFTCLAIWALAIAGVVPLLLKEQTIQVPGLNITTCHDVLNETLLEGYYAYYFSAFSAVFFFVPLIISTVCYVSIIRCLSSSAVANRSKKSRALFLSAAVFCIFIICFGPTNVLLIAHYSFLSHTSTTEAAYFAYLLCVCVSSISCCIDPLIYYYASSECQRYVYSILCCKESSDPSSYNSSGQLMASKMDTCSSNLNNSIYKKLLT

| risk of major bleeding (PAR1) | SMILES | inhibition of PAR4-dependent platelet activation [1] | cardiovascular events (PAR1) |
| --- | --- | --- | --- |
|  | CCOC(=O)c1ccc(-c2nn(Cc3ccccc3)c3ccccc23)cc1 [ethyl 4-(1-benzyl-1H-indazol-3-yl)benzoate] | selective and potent inhibitor |  |
| significantly increased | CCOC(=O)N[C@@H]1CC[C@@H]2[C@@H](C1)C[C@H]1C(=O)O[C@H](C)[C@H]1[C@H]2/C=C/c1ccc(-c2cccc(F)c2)cn1 [vorapaxar] |  | did not significantly reduce |
